In the experiment the test system is mice with CCl4-induced chronic liver injury. Put plainly: CCl4-induced chronic liver injury in mice. Format: in vivo. The following applies: 6 weeks. As for the experimental part:
SPF-grade male C57BL/6 mice were randomly divided into 5 groups, 12 mice in each group. The groups were a control group, a model group, a silibinin group (positive control group), a TFFCL low-dose group, and a TFFCL high-dose group. In addition to the control group, mice in the model group, positive control group, TFFCL low-dose group, and TFFCL high-dose group were intraperitoneally injected with 20% CCl4 (CCl4: olive oil=1:4, 2 mL/kg); mice in the control group were intraperitoneally injected with an equal amount of olive oil solution. Each group was injected twice a week for 6 weeks. The silibinin and TFFCL were separately suspended in 0.5% CMC-Na solution. The silibinin group, TFFCL-L group (low-dose), and TFFCL-H group (high-dose) were administered silibinin 100 mg/kg, TFFCL 20 mg/kg, and TFFCL 40 mg/kg by gavage, respectively; while the control group and the model group were intragastrically administered the same amount of 0.5% CMC-Na solution. Each group was given continuous intragastric administration once a day for 6 weeks. During the animal feeding, the body weight of mice was monitored and recorded weekly; 16 h after the last administration in the 6th week, blood was collected from the orbit of the mice, the liver and spleen of the mice were weighed and photographed, and wet weights of the liver and spleen were recorded. The organ index was calculated (organ index=organ mass/body mass×100%).

The compound `COc1cc(C2Oc3cc([C@H]4Oc5cc(O)cc(O)c5C(=O)[C@@H]4O)ccc3OC2CO)ccc1O` (some centres unmarked) [Positive group, silibinin] showed a Liver index (silibinin 100 mg/kg by gavage once a day) of 4.42 ± 0.30 %. Moreover, for the setting “silibinin 100 mg/kg”, the Spleen index turned out to be 0.35 ± 0.02%, the “liver tissue CAT” value amounted to 262.23 ± 73.45 U/mg, the “liver tissue GSH-PX” value worked out at 7.84 ± 3.75 U/mg and the “liver tissue MDA” value was 1.12 ± 0.28 nmol/mg. Moreover, where the note is “silibinin 100 mg/kg”, the “liver tissue SOD” value was found to be 9.33 ± 2.47 U/mg, the “serum ALT” value is reported as 80.58 ± 18.26 U/L, the “serum AST” value stood at 226.58 ± 45.39 U/L and the “serum IL-1β” value is 152.13 ± 30.49 pg/mL. For the same compound, under “silibinin 100 mg/kg”, the “serum IL-6” value was found to be 81.40 ± 15.12 pg/mL and the “serum TNF-α” value was found to be 252.32 ± 34.16 pg/mL.

Source of the values: patent US20240226217A9, “METHOD FOR EXTRACTING AND PURIFYING TOTAL FLAVONOIDS FROM CARTHAMUS TINCTORIUS L. LEAF (TFFCL), AND USE THEREOF” (Shaanxi University of Chinese Medicine, priority 2022, published 2024).
